This is an account of results in patent US9480729B2, “Enzymes for inhibiting growth of biofilms and degrading same” (C5-6 Technologies, Inc., priority 2012, dated 2016).

The conditions of series [1]: cited from earlier work.
Series [2] has as its system Pseudomonas aeruginosa biofilm. The series is described as follows: Sugar release / solubilization of dehydrated P. aeruginosa biofilm by carbohydrate-active enzymes. Particulars: individual enzymes, dehydrated biofilm in PBS, 37° C., 19 hr / overnight.

As to `NC[C@H]1O[C@H](O[C@H]2[C@H](O)[C@@H](O[C@H]3O[C@H](CO)[C@@H](O)[C@H](N)[C@H]3O)[C@H](N)C[C@@H]2N)[C@H](N)C[C@@H]1O` [tobramycin], the “maximal attainable concentration in the CF lung” value in series [1] was around 1000 µg/mL.

Consider “egg yolk lysozyme: egg yolk lysozyme (Sigma L4919)”, for which, in series [2], the “digestion (solubilization, hydrolysis) of the Pseudomonas aeruginosa biofilm, sugar release” value is recorded as “None of these three enzymes showed significant hydrolysis”.

B1: P043 CelH: Clostridium thermocellum CelH enzyme (gene Cthe_1472) represented by SEQ ID NO:12 (protein, listed as Clostridium thermocellum)
chain: IKSFQELQGRKLDIVHQFINWSTDFSWVRPYADAVYNNGSILMITWEPWEYNTVDIKNGKADAYITRMAQDMKAYGKEIWLRPLHEANGDWYPWAIGYSSRVNTNETYIAAFRHIVDIFRANGATNVKWVFNVNCDNVGNGTSYLGHYPGDNYVDYTSIDGYNWGTTQSWGSQWQSFDQVFSRAYQALASINKPIIIAEFASAEIGGNKARWITEAYNSIRTSYNKVIAAVWFHENKETDWRINSSPEALAAYREAIGAGSSNPTPTPTWTSTPPSSSPKAVDPFEMVRKMGMGTNLGNTLEAPYEGSWSKSAMEYYFDDFKAAGYKNVRIPVRWDNHTMRTYPYTIDKAFLDRVEQVVDWSLSRGFVTIINSHHDDWIKEDYNGNIERFEKIWEQIAERFKNKSENLLFEIMNEPFGNITDEQIDDMNSRILKIIRKTNPTRIVIIGGGYWNSYNTLVNIKIPDDPYLIGTFHYYDPYEFTHKWRGTWGTQEDMDTVVRVFDFVKSWSDRNNIPVYFGEFAVMAYADRTSRVKWYDFISDAALERGFACSVWDNGVFGSLDNDMAIYNRDTRTFDTEILNALFNPGTYPSYSPKPSPTPRPTKPPVTPAVGEKMLDDFEGVLNWGSYSGEGAKVSTKIVSGKTGNGMEVSYTGTTDGYWGTVYSLPDGDWSKWLKISFDIKSVDGSANEIRFMIAEKSINGVGDGEHWVYSITPDSSWKTIEIPFSSFRRRLDYQPPGQDMSGTLDLDNIDSIHFMYANNKSGKFVVDNIKLIGATSDPTPSIKHGDLNFDNAVNSTDLLMLKRYILKSLELGTSEQEEKFKKAADLNRDNKVDSTDLTILKRYLLKAISEIPI
B1: the “digestion (solubilization, hydrolysis) of the Pseudomonas aeruginosa biofilm, sugar release” value in series [2] is recorded as “positive results”.
